Source: ChEMBL document CHEMBL4364317, “2-O-(2-chlorobenzoyl) maslinic acid triggers apoptosis in A2780 human ovarian carcinoma cells” (Eur J Med Chem, 2019)
The source made the active and inactive calls. The calls are words filed in the database; no cut-off is given here.

Experiments:
NIH3T3 = assay: Cytotoxicity against mouse NIH/3T3 cells measured after 96 hrs by sulforhodamine B assay; assay type: cell-based; conditions: NIH3T3, 96 h
DLD-1 = assay: Anticancer activity against human DLD1 cells measured after 96 hrs by sulforhodamine B assay; assay type: functional, cell-based; conditions: DLD-1, 96 h
HT-29 = assay: Anticancer activity against human HT-29 cells measured after 96 hrs by sulforhodamine B assay; assay type: functional, cell-based; conditions: HT-29, 96 h
A253 cell line = assay: Anticancer activity against human A253 cells measured after 96 hrs by sulforhodamine B assay; assay type: functional, cell-based; conditions: A253, 96 h
A549 = assay: Anticancer activity against human A549 cells measured after 96 hrs by sulforhodamine B assay; assay type: functional, cell-based; conditions: A549, 96 h
A2780 [1] = assay: Anticancer activity against human A2780 cells measured after 96 hrs by sulforhodamine B assay; assay type: functional, cell-based; conditions: A2780, 96 h
SW-1736 = assay: Anticancer activity against human SW1736 cells measured after 96 hrs by sulforhodamine B assay; assay type: functional, cell-based; conditions: SW-1736, 96 h
8505C = assay: Anticancer activity against human 8505C cells measured after 96 hrs by sulforhodamine B assay; assay type: functional, cell-based
518A2 = assay: Anticancer activity against human 518A2 cells measured after 96 hrs by sulforhodamine B assay; assay type: functional, cell-based; conditions: 518A2, 96 h
MCF7 = assay: Anticancer activity against human MCF7 cells measured after 96 hrs by sulforhodamine B assay; assay type: functional, cell-based; conditions: MCF7, 96 h
A2780 [2] = assay: Induction of necrosis in human A2780 cells at 30 uM measured for 72 hrs by acridine orange/propidium iodide staining based fluorescence microscopic analysis; assay type: functional, cell-based
A2780 [3] = assay: Induction of apoptosis in human A2780 cells assessed as membrane blebbing at 30 uM measured for 72 hrs by acridine orange/propidium iodide staining based fluorescence microscopic analysis; assay type: functional, cell-based
A2780 [4] = assay: Induction of apoptosis in human A2780 cells assessed as loss of cell membrane integrity at 30 uM measured for 72 hrs by acridine orange/propidium iodide staining based fluorescence microscopic analysis; assay type: functional
A2780 [5] = assay: Induction of apoptosis in human A2780 cells assessed as […] cell death at 30 uM measured after 24 to 72 hrs by annexin v flow cytometry analysis; assay type: functional, cell-based
A2780 [6] = assay: Induction of apoptosis in human A2780 cells assessed as […] cell death at 15 uM measured after 24 to 72 hrs by annexin v flow cytometry analysis; assay type: functional, cell-based
A2780 [7] = assay: Induction of necrosis in human A2780 cells at 15 uM measured for 72 hrs by acridine orange/propidium iodide staining based fluorescence microscopic analysis; assay type: functional, cell-based
A2780 [8] = assay: Induction of apoptosis in human A2780 cells assessed as loss of cell membrane integrity at 15 uM measured for 72 hrs by acridine orange/propidium iodide staining based fluorescence microscopic analysis; assay type: functional
A2780 [9] = assay: Induction of apoptosis in human A2780 cells assessed as membrane blebbing at 15 uM measured for 72 hrs by acridine orange/propidium iodide staining based fluorescence microscopic analysis; assay type: functional, cell-based

Structure (SMILES)	EC50 (DLD-1) [µM]	EC50 (HT-29) [µM]	EC50 (A253 cell line) [µM]	EC50 (A549) [µM]	EC50 (A2780 [1]) [µM]	EC50 (SW-1736) [µM]	EC50 (8505C) [µM]	EC50 (518A2) [µM]	EC50 (MCF7) [µM]	EC50 (NIH3T3) [µM]	Activity (A2780 [2])	Activity (A2780 [3])	Activity (A2780 [4])	Activity (A2780 [5])	Activity (A2780 [6])	Activity (A2780 [7])	Activity (A2780 [8])	Activity (A2780 [9])
CC1(C)CC[C@]2(C(=O)O)CC[C@]3(C)C(=CC[C@@H]4[C@@]5(C)C[C@@H](OC(=O)c6ccccc6)[C@H](OC(=O)c6ccccc6)C(C)(C)[C@@H]5CC[C@]43C)[C@@H]2C1	17.9	16.5	12.7	17.4	11.2	19.4	16.4			23.2								
CC1(C)CC[C@]2(C(=O)O)CC[C@]3(C)C(=CC[C@@H]4[C@@]5(C)C[C@@H](OC(=O)c6ccccc6F)[C@H](O)C(C)(C)[C@@H]5CC[C@]43C)[C@@H]2C1	10.7	6.3	12.9	9.4	6	16.9	12.6	11.6	7.1	16.9								
CC1(C)CC[C@]2(C(=O)O)CC[C@]3(C)C(=CC[C@@H]4[C@@]5(C)C[C@@H](O)[C@H](OC(=O)c6ccccc6F)C(C)(C)[C@@H]5CC[C@]43C)[C@@H]2C1	10.1		6.6	9.8	6	21.2	12.6	11.8	6.7	12.5								
CC(=O)O[C@@H]1C[C@]2(C)[C@H]3CC=C4[C@@H]5CC(C)(C)CC[C@]5(C(=O)O)CC[C@@]4(C)[C@]3(C)CC[C@H]2C(C)(C)[C@H]1O	23.1	10.7	11	4.3	19.9		8.8	21	11.5	15.4								
CC1(C)CC[C@]2(C(=O)O)CC[C@]3(C)C(=CC[C@@H]4[C@@]5(C)C[C@@H](O)[C@H](O)C(C)(C)[C@@H]5CC[C@]43C)[C@@H]2C1 [MASLINIC ACID]									24.4	16.6	Active	Active	Active	Active				
CC1(C)CC[C@]2(C(=O)O)CC[C@]3(C)C(=CC[C@@H]4[C@@]5(C)C[C@@H](OC(=O)c6ccccc6)[C@H](O)C(C)(C)[C@@H]5CC[C@]43C)[C@@H]2C1	10.3	12.7	9	9.1	6.4	18.2	11.2	15.5		15								
CC(=O)O[C@@H]1C[C@]2(C)[C@H]3CC=C4[C@@H]5CC(C)(C)CC[C@]5(C(=O)O)CC[C@@]4(C)[C@]3(C)CC[C@H]2C(C)(C)[C@H]1OC(C)=O	17	8.5	7.7	4.2	17.3		5.7	14.6	8.5	10.4								

Continued, in another order:

EC50 (DLD-1) [µM]	EC50 (HT-29) [µM]	EC50 (A253 cell line) [µM]	EC50 (A549) [µM]	EC50 (A2780 [1]) [µM]	EC50 (SW-1736) [µM]	EC50 (8505C) [µM]	EC50 (518A2) [µM]	EC50 (MCF7) [µM]	Structure (SMILES)	EC50 (NIH3T3) [µM]	Activity (A2780 [2])	Activity (A2780 [3])	Activity (A2780 [4])	Activity (A2780 [5])	Activity (A2780 [6])	Activity (A2780 [7])	Activity (A2780 [8])	Activity (A2780 [9])
> 30	> 30	> 30	> 30	29.3	> 30	> 30	17.1	> 30	CC1(C)CC[C@]2(C(=O)O)CC[C@]3(C)C(=CC[C@@H]4[C@@]5(C)C[C@@H](OC(=O)c6cccnc6Cl)[C@H](OC(=O)c6cccnc6Cl)C(C)(C)[C@@H]5CC[C@]43C)[C@@H]2C1	> 30								
7.1	11.1	9.7	6.1	6.2	14.8	8.1	12.1	5.1	CC1(C)CC[C@]2(C(=O)O)CC[C@]3(C)C(=CC[C@@H]4[C@@]5(C)C[C@@H](OC(=O)c6cc([N+](=O)[O-])cc([N+](=O)[O-])c6)[C@H](O)C(C)(C)[C@@H]5CC[C@]43C)[C@@H]2C1	17.4								
5.2		5.4	5.8		12.9	6.9	6.8	3.3	CC1(C)CC[C@]2(C(=O)O)CC[C@]3(C)C(=CC[C@@H]4[C@@]5(C)C[C@@H](O)[C@H](OC(=O)c6ccccc6Cl)C(C)(C)[C@@H]5CC[C@]43C)[C@@H]2C1	7.1								
7.2	9.4	8.3		5.5	12.8	7.5		4.2	CC1(C)CC[C@]2(C(=O)O)CC[C@]3(C)C(=CC[C@@H]4[C@@]5(C)C[C@@H](O)[C@H](OC(=O)c6cc([N+](=O)[O-])cc([N+](=O)[O-])c6)C(C)(C)[C@@H]5CC[C@]43C)[C@@H]2C1	15.7								
7.6	8.5	10.4	7.5	4.7	13.9	8.9	8.3	5.6	CC1(C)CC[C@]2(C(=O)O)CC[C@]3(C)C(=CC[C@@H]4[C@@]5(C)C[C@@H](OC(=O)c6ccccc6Cl)[C@H](O)C(C)(C)[C@@H]5CC[C@]43C)[C@@H]2C1	10.4					Active	Active	Active	Active
